Earlier results on one molecule are cited in patent US20230310417A1, “INJECTABLE ARIPIPRAZOLE FORMULATION” (CIPLA LIMITED, priority 2020, published 2023).

Molecules are shown by their SMILES.

The conditions of this series: room temperature.

By aqueous solubility is commonly meant the dissolved amount per volume that the medium holds. `O=C1CCc2ccc(OCCCCN3CCN(c4cccc(Cl)c4Cl)CC3)cc2N1` [Aripiprazole]: the aqueous solubility is less than 1 µg/mL.
